Measurements from PMC10766964, “Copper-catalyzed synthesis of pyrazolo[1,5-a]pyrimidine based triazole-linked glycohybrids: mechanistic insights and bio-applications” (Scientific Reports, 2024).
Where two headings read alike, the source gives them in different places.

Columns and labels:
[1] = tested on: MDA-MB-231 (human breast cancer) cell line; assay: MTT cell viability assay in MDA-MB-231 cells; type: cell-based; settings: 72 h; for viability at 20 µM: positive control at 20 µM; for viability at 0.02 µM: positive control at 20 nM
Description: Thus, we screened the synthesized library of pyrazolo[1,5-a]pyrimidin-7-ols 4a–4i. Anticancer activity (in terms of growth inhibition/decreased cell viability with respect to control) of all synthesized compounds (n = 9) was investigated by MTT assay in MDA-MB-231 (human breast cancer) cell line at different concentrations for 72 h. […] Thus, it was aimed to investigate the anticancer activity of a synthesized library of triazole-linked glycohybrids of pyrazolo[1,5-a]pyrimidines. […] The MTT assay was used to investigate the anticancer activity of twenty-seven synthesized compounds on the growth inhibition and decrement in cell viability of MDA-MB-231 (human breast cancer). Different concentrations were tested for 72 h, and the results were compared to a control. MDA-MB-231, a human breast cancer cell line, was cultured under standard conditions. Specifically, they were grown in Dulbecco’s Modified Eagle’s Medium (DMEM) supplemented with 10% heat-inactivated Fetal Bovine Serum (FBS) and 1% penicillin–streptomycin. The cells were maintained as a monolayer in a 100 mm culture plate and were used for experiments before reaching their 8th passage. Subculturing was performed every third-day using trypsin EDTA treatment. All incubation and maintenance procedures were carried out in a humidified CO2 incubator at 37 °C. To evaluate cell viability, the MTT assay was conducted following standard procedures. After 72 h of cell incubation with or without each compound, cell viability was assessed using MTT (3-(4,5-dimethylthiazol-2-yl)-2,5-diphenyltetrazolium bromide), which is a colorimetric method for determining the number of viable cells in various assays including proliferation, cytotoxicity, or chemosensitivity. The MTT reagent was added to the cells after removal of the medium and incubated for 3 h at 37 °C in the CO2 incubator. The formazan product, which is […] in the tissue culture medium, was dissolved in DMSO, and the absorbance of the formazan product was directly measured at 595 nm using a multimode plate reader without additional processing. The absorbance values are directly proportional to the number of viable cells in culture. The percentage of viable cells in each group was determined relative to the untreated control cells.

[2] = MTT cell viability assay in normal MCF-10A cells; type: cell-based; settings: human, MCF-10A normal mammary epithelial cells; MCF-10A normal cells, positive control at 20 nM; read-out: Cell viability (%) ± SD
Description: (§1) We also included normal mammary epithelial MCF-10A cells in our experiments to confirm if the growth-inhibitory activities of the selected compounds are truly cancer cell-specific. The activity data from MCF-7 and MDA-MB-453 cell lines (tested at 1 µM, 10 µM and 25 µM) and activity data from MCF-10A cell line (tested at 25 µM, 50 µM and 100 µM) are summarized in Table 3. To evaluate cell viability, the MTT assay was conducted following standard procedures. After 72 h of cell incubation with or without each compound, cell viability was assessed using MTT (3-(4,5-dimethylthiazol-2-yl)-2,5-diphenyltetrazolium bromide), which is a colorimetric method for determining the number of viable cells in various assays including proliferation, cytotoxicity, or chemosensitivity. The MTT reagent was added to the cells after removal of the medium and incubated for 3 h at 37 °C in the CO2 incubator. The formazan product, which is […] in the tissue culture medium, was dissolved in DMSO, and the absorbance of the formazan product was directly measured at 595 nm using a multimode plate reader without additional processing. The absorbance values are directly proportional to the number of viable cells in culture. The percentage of viable cells in each group was determined relative to the untreated control cells.

[3] = tested on: MCF-7 (hormone receptor/HR-positive breast cancer cells); assay: MTT cell viability assay in MCF-7 cells; type: cell-based; settings: Homo sapiens, MCF7; MCF-7, positive control at 20 nM; read-out: Cell viability (%) ± SD
Description: MDA-MB-231 represents a specific subtype known as triple-negative breast cancer (TNBC). The investigation study was extended with active six hit compounds (9a, 9d, 9h, 10d, 10f, and 11g) in two other different cancer cell lines (MCF-7 and MDA-MB-453), each representing a separate class of breast cancers (MCF-7: hormone receptor/HR-positive; MDA-MB-453: human epidermal growth factor 2 receptor/HER2 positive).
We also included normal mammary epithelial MCF-10A cells in our experiments to confirm if the growth-inhibitory activities of the selected compounds are truly cancer cell-specific. The activity data from MCF-7 and MDA-MB-453 cell lines (tested at 1 µM, 10 µM and 25 µM) and activity data from MCF-10A cell line (tested at 25 µM, 50 µM and 100 µM) are summarized in Table 3.
as §1, with “To” for “We also included normal mammary epithelial MCF-10A cells in our experiments to confirm if the growth-inhibitory activities of the selected compounds are truly cancer cell-specific. The activity data from MCF-7 and MDA-MB-453 cell lines (tested at 1 µM, 10 µM and 25 µM) and activity data from MCF-10A cell line (tested at 25 µM, 50 µM and 100 µM) are summarized in Table 3. To”

[4] = tested on: MDA-MB-453 (HER2 positive breast cancer cells); assay: MTT cell viability assay in MDA-MB-453 cells; type: cell-based, human; settings: Homo sapiens; MDA-MB-453, positive control at 20 nM; read-out: Cell viability (%) ± SD
Description: as §1, with “MDA-MB-231 represents a specific subtype known as triple-negative breast cancer (TNBC). The investigation study was extended with active six hit compounds (9a, 9d, 9h, 10d, 10f, and 11g) in two other different cancer cell lines (MCF-7 and MDA-MB-453), each representing a separate class of breast cancers (MCF-7: hormone receptor/HR-positive; MDA-MB-453: human epidermal growth factor 2 receptor/HER2 positive). […] We” for “We”

[5] = Table 1, MDA-MB-231, MTT, read-out: Cell Viability (%) ± SD
[6] = Table 2, MDA-MB-231, MTT, read-out: Cell viability (%) ± SD

Question: With `CC(=O)OC[C@H]1O[C@H](n2cc(COc3cc(-c4ccc5c(c4)OCO5)nc4ccnn34)nn2)[C@@H](OC(C)=O)[C@@H](OC(C)=O)[C@@H]1OC(C)=O` [Compound 11i, (2R,3R,4S,5S,6S)-2-(acetoxymethyl)-6-(4-(((5-(benzo[d][1,3]dioxol-5-yl)pyrazolo[1,5-a]pyrimidin-7-yl)oxy)methyl)-1H-1,2,3-triazol-1-yl)tetrahydro-2H-pyran-3,4,5-triyl triacetate] as the compound, how does the viability at 10 µM ([1]; Table 2, MDA-MB-231, MTT, 10 µM, read-out: Cell viability (%) ± SD) read?
Answer: Its viability at 10 µM is 97.5 ± 4.91%.

Question: And the viability at 25 µM ([1]; Table 2, MDA-MB-231, MTT, 25 µM, read-out: Cell viability (%) ± SD)?
Answer: Its viability at 25 µM is 95.3 ± 3.6%.

Question: And the viability at 50 µM ([1]; Table 2, MDA-MB-231, MTT, 50 µM, read-out: Cell viability (%) ± SD)?
Answer: The viability at 50 µM was 93.9 ± 9.08%.

Question: Which viability at 20 µM [1, 5] does the source give for `CC1=CC(=O)c2ccccc2C1=O` [Menadione, menadione, reference compound] here?
Answer: The viability at 20 µM was 21.8 ± 4.7%.

Question: And the viability at 20 µM [1, 6]?
Answer: Its viability at 20 µM is 20.8 ± 6.7%.

Question: Which results are given for `COCCn1c2c([n+](Cc3cnccn3)c1C)C(=O)c1ccccc1C2=O` [YM155, reference compound]?
Answer: viability at 72 h, 0.02 µM [2]: 38.2 ± 1.6%; viability at 0.02 µM [1, 5]: 20.4 ± 5.13%; viability at 0.02 µM [1, 6]: 26.4 ± 3.93%; viability at 0.02 µM [3]: 32.2 ± 1.7%; viability at 0.02 µM [4]: 35.2 ± 1.5%
